How the values were obtained:
HBV polymerase = biological target: T1, HBV polymerase (Hepatitis B virus genotype A2 subtype adw2, UniProt P03159); assay: In vitro reverse transcription activity of HBV polymerase (ELISA-type, DIG/biotin nucleotides); type: biochemical; settings: for inhibition at 0.01 µg/mL / inhibition at 0.1 µg/mL / inhibition at 1 µg/mL: read-out: Inhibition activity on HBV-RT (%)
T1 construct: made in house; host or cells: E. coli
Experimental: <Experiment 1> Inhibitory Effect on the In Vitro Activities of HBV Polymerase in Reverse Transcription
The following in vitro experiment was performed to determine the effect of the compounds of formula 1 on the activity of HBV polymerase during reverse transcription.
The present inventors submitted application for a patent concerning HBV polymerase genetically expressed in and separated from E.coli, the process of its preparation, and the method to measure the enzyme activities (KR 94-3918, KR 96-33998). In the present experiments HBV polymerase was used which had been expressed in E. coli as stated above.
The method used in the present invention to measure in vitro reverse transcribing activities of HBV polymerase is as follows. Basic principles are the same as for ELISA. Nucleotides with biotin or digoxigenin group attached are included as substrates and anti-DIG antibodies attached to peroxidase enzyme recognize the polymerized substrates.
To the wells coated with streptavidin, 20 μl of HBV polymerase, 20 μl of reaction mixture (10 μM each of DIG-UTP and Biotin-UTP, 46 mM Tris-HCl, 266 mM KCl, 27.5 mM MgCl2, 9.2 mM DTT substrate/primer nybrid), and 20 μl of test compound (added to 1, 0.1, and 0.01 μg/ml) were added and allowed to react at 22° C. for 15 hrs. During this reaction, HBV polymerase catalyzes DNA synthesis and digoxigenin and biotin attached to nucleotides form bonds with streptavidin coated on the bottom of wells. When the reaction was done, each well was washed with 250 μl of cleaning buffer (pH 7.0) for 30 seconds, which was repeated five times to remove remaining impurities. 200 μl of anti-DIG-POD antibody was added to each well and allowed to react for 1 hr at 37° C., and the wells were washed with cleaning buffer to remove impurities. 200 μl each of ABTS™, a substrate of peroxidase, was then added and allowed to react at room temperature for 30 min. Absorbance was measured at 405 nm using ELISA reader.
The percentage of reduction in HBV polymerase activities for reverse transcription was calculated using the group without test compound as a control and the results are shown in Table 3.

[1] = biological target: T2, HIV reverse transcriptase (Human immunodeficiency virus type 1 group M subtype B, UniProt P03366); assay: In vitro HIV reverse transcriptase activity (non-radioactive RT assay kit); type: biochemical
T2 construct: purchased Boehringer Mannheim
Experimental: <Experiment 3> Inhibitory Effect on the In Vitro HIV Enzyme Activities in Reverse Transcription
The following in vitro experiments were done to determine the effect of compounds of formula 1 on the reduction of HIV enzyme activities in reverse transcription.
Non-radioactive reverse transcriptase assay kit (Boehringer Mannheim) was used in the measurement of in vitro transcriptase activities. 20 μl (40 ng) of HIV transcriptase and 20 μl of reaction mixture containing matrix-primer hybrid poly(A)oligo(dT)15, DIG(digoxigenin)-dUTP, biotin-dUTP, and TTP were added to wells coated with streptavidin. Test compounds were also added at the final concentrations of 0.1 and 1 μg/ml and allowed to react at 37° C. for 1 hr. At this time, DNA is formed from RNA by the action of HIV reverse transcriptase, forming bonds with streptavidin coated on the bottom of wells because of digoxigenin and biotin moieties attached to nucleotides.
When the reaction was completed, each well was washed with 250 μl of cleaning buffer (pH7.0) for 30sec. five times to remove remaining impurities. 200 μl of anti-DIG-POD […] was added to each well, allowed to react at 37° C. for 1 hr and washed as above to remove impurities. 200 μl of ABTS™, a substrate for peroxidase, was added to each well and allowed to react at room temperature for 30 min. Absorbance at 405 nm was then read for each solution using ELISA reader and used for quantitative determination of inhibitory effect on the HIV transcriptase activities. The percentage of reduction in the activities of HIV reverse transcriptase was calculated using the group without test compound as control and the results are represented in Table 5.

HBV = assay: Proliferation of HBV in HBV producing cell line HepG 2.2.15 (competitive PCR of culture supernatant); type: cell-based, Hepatitis B virus; settings: HepG 2.2.15, one week; for inhibition at 0.01 µg/mL / inhibition at 0.1 µg/mL / inhibition at 1 µg/mL: Hepatitis B virus, HepG2.2.15, 168 h, read-out: Inhibitory effect on the HBV proliferation: Inhibition activity on HBV-RT (%)
Experimental: <Experiment 2> Inhibitory Effect on the Proliferation of HBV in HBV Producing Cell Line
The following experiment was performed to determine inhibitory effects of compounds of formula 1 on the proliferation of HBV producing cell line.
To test for antiviral effect, replication and proliferation of HBV were measured in HepG 2.2.15, a human liver cancer cell line.
The cell concentration was adjusted to 1×10^5 cells/ml and 1 ml was added to each well of a 24-well cell culture plate, which was then kept in a culture box for 3-4 days at 37° C. under 5% CO2 until cells grew sufficiently, changing culture medium everyday. When the cells matured sufficiently, the test compounds were added to the final concentrations of 0.01, 0.1, and 1 μg/ml. One week after the addition of test compounds, the culture solution was centrifuged at 5,000 rpm for 10 min. 25 μl of supernatant was transferred to a new tube and 5 μl of lysis solution [0.54N NaOH, 0.06% NP40] was added to each tube. After keeping the tube at 37° C. for 1 hr, 30 μl of neutralizing solution [0.09N HCl 0.1MTris-HCl, pH7.4] was added as a reaction solution for competitive polymerase chain reaction (PCR).
PCR was performed using genetic sequence of HBV core protein as a matrix. PCR reaction was carried out by adding 1 unit of Taq polymerase enzyme to 25 pmol of each primer, 250 μM dNTP, 5 μl of PCR reaction solution [0.54N NaOH, 0. 06% NP40, 0.09N HCl, 0.1M Tris-HCl, pH 7.4].
DNA polymerized by PCR was electrophoresed on Agarose gel and quantitatively analyzed using an image analyzer (Gel Doc 1000, Bio-Rad) in order to evaluate the effect of compounds of the present invention on the reduction of HBV proliferation.
3TC (lamivudine) was used as a positive control at the same concentrations as those of the test compounds. The percentage of reduction in HBV proliferation was calculated using the group without test compound as a control and the results are represented in Table 4.

T1 sequence (P03159 whole entry): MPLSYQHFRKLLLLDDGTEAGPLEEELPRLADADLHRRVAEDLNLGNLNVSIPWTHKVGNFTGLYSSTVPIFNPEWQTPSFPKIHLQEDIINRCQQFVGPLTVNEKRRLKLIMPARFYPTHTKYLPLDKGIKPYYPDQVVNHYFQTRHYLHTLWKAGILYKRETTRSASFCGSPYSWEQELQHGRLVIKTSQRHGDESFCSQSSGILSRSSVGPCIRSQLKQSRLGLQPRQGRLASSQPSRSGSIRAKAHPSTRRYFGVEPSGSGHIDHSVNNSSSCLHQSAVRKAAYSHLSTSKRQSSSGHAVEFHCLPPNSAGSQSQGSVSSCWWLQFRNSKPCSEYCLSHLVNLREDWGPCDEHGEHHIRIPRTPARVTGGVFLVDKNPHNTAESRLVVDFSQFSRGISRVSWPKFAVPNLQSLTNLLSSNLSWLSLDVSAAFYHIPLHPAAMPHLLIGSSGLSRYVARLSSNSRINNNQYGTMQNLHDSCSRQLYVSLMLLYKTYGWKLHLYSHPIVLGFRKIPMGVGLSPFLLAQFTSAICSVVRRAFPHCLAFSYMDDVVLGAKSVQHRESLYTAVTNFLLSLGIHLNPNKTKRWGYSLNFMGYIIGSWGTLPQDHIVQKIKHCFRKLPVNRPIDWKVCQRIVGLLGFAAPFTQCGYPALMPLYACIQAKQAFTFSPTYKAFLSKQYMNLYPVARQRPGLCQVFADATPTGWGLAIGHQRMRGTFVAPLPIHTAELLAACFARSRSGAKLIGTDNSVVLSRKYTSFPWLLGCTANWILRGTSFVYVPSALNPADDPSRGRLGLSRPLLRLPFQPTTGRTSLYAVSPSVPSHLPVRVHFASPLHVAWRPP

Compound	melting point	inhibition at 0.01 µg/mL (HBV polymerase; 0.01 μg/ml test compound) [%]	inhibition at 0.1 µg/mL (HBV polymerase; 0.1 μg/ml test compound) [%]	inhibition at 1 µg/mL (HBV polymerase; 1 μg/ml test compound) [%]	Inhibitory effect on the activities of HIV reverse transcriptase: Inhibition activity on HIV-RT (%) ([1]; 0.1 μg/ml test compound)	Inhibitory effect on the activities of HIV reverse transcriptase: Inhibition activity on HIV-RT (%) ([1]; 1 μg/ml test compound)	inhibition at 0.01 µg/mL (HBV; 0.01 μg/ml) [%]	inhibition at 0.1 µg/mL (HBV; 0.1 μg/ml) [%]	inhibition at 1 µg/mL (HBV; 1 μg/ml) [%]	Inhibition activity on HBV-RT (%) (HBV polymerase; 0.01 μg/ml test compound)	Inhibition activity on HBV-RT (%) (HBV polymerase; 0.1 μg/ml test compound)	Inhibition activity on HBV-RT (%) (HBV polymerase; 1 μg/ml test compound)	Inhibitory effect on the HBV proliferation: Inhibition activity on HBV-RT (%) (HBV; 0.1 μg/ml)	Inhibitory effect on the HBV proliferation: Inhibition activity on HBV-RT (%) (HBV; 1 μg/ml)	Inhibitory effect on the HBV proliferation: Inhibition activity on HBV-RT (%) (HBV; 0.01 μg/ml)
CN1CCN(c2ccc([N+](=O)[O-])c(Nc3ccc4cn[nH]c4c3)n2)CC1 (hydrate or solvate) [Example 26, 2-(1H-6-indazolylamino)-6-(4-methyl-1-piperazinyl)-3-nitropyridine]	253 °C (dec.)														
COc1ccc([N+](=O)[O-])c(Nc2ccc3[nH]ncc3c2)n1 [Example 1, 2-(1H-5-indazolylamino)-6-methoxy-3-nitropyridine]		30	54	85	35	75	20	45	82						
CNc1ccc([N+](=O)[O-])c(Nc2ccc3cn[nH]c3c2)n1 [Example 4, 2-(1H-6-indazolylamino)-6-methyl amino-3-nitropyridine]					51	70				26	51	60	40	58	
CC(C)Nc1ccc([N+](=O)[O-])c(Nc2ccc3[nH]ncc3c2)n1 [Example 5, 2-(1H-5-indazolylamino)-6-isopropyl amino-3-nitropyridine]					20	55				53	87	96	81	94	41
CC(C)CNc1ccc([N+](=O)[O-])c(Nc2ccc3[nH]ncc3c2)n1 [Example 7, 2-(1H-5-indazolylamino)-6-isobuthyl amino-3-nitropyridine]					45	72				47	80	95	75	93	30
CN1CCN(Nc2ccc([N+](=O)[O-])c(Nc3ccc4cn[nH]c4c3)n2)CC1 [Example 18, 2-(1H-6-indazolylamino)-6-(4-methyl-1-piperazinyl)amino-3-nitropyridine]	260 °C (dec.)	25	43	70											
O=[N+]([O-])c1ccc(NCc2cccnc2)nc1Nc1ccc2cn[nH]c2c1 [Example 20, 2-(1H-6-indazolylamino)-3-nitro-6-(3-pyridyl)methylaminopyridine]	> 270 °C	21	40	66	53	84									
O=[N+]([O-])c1ccc(NCc2ccncc2)nc1Nc1ccc2[nH]ncc2c1 [Example 21, 2-(1H-5-indazolylamino)-3-nitro-6-(4-pyridyl)methylaminopyridine]		45	65	94	39	72	33	50	90						
O=[N+]([O-])c1ccc(NCc2ccccn2)nc1Nc1ccc2cn[nH]c2c1 [Example 22, 2-(1H-6-indazolylamino)-3-nitro-6-(2-pyridyl)methylaminopyridine]	256 °C (dec.)	49	60	81											
O=[N+]([O-])c1ccc(N2CCNCC2)nc1Nc1ccc2[nH]ncc2c1 [Example 23, 2-(1H-5-indazolylamino)-3-nitro-6-(1-piperazinyl)pyridine]	270 °C (dec.)	51	66	96			35	55	92						
O=[N+]([O-])c1ccc(N2CCNCC2)nc1Nc1ccc2cn[nH]c2c1 [Example 24, 2-(1H-6-indazolylamino)-3-nitro-6-(1-piperazinyl)pyridine]	268 °C (dec.)	20	43	62											
O=[N+]([O-])c1ccc(NN2CCOCC2)nc1Nc1ccc2[nH]ncc2c1 [Example 30, 2-(1H-5-indazolylamino)-6-(4-morpholinyl)amino-3-nitropyridine]	> 270 °C	32	49	71											

Reference: patent US6743795B1, “3-nitropyridine derivaives and the pharmaceutical compositions containing said derivatives” (Dong Wha Pharm. Ind. Co. Ltd., priority 1999, dated 2004)
